# Assay results published in ChEMBL document CHEMBL2440115, “Discovery and characterization of synthetic 4'-hydroxyflavones-New CK2 inhibitors from flavone family” (Bioorg Med Chem, 2013).
# Columns and labels:
# [1] = target: Casein kinase II (Homo sapiens) (UniProt P67870+P68400+P19784); test: Inhibition of recombinant human CK2 using RRRDDDSDDD as substrate assessed as residual activity at 10 uM after 20 mins by beta counting analysis in presence of [gamma-labeled 32P]ATP relative to control; type: protein-complex assay
# Casein kinase II = Casein kinase II (Homo sapiens, UniProt P19784+P67870+P68400); test: Inhibition of recombinant human CK2 using RRRDDDSDDD as substrate after 20 mins by beta counting analysis in presence of [gamma-labeled 32P]ATP; type: protein-complex assay
# Sequence of Casein kinase II (P67870 whole entry): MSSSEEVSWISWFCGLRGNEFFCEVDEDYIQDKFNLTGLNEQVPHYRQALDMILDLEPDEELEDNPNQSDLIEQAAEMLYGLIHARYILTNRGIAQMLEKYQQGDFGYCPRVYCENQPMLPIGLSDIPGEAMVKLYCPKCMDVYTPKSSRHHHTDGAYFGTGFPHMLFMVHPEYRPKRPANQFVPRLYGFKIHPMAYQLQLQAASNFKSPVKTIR
# Sequence of Casein kinase II (P68400 whole entry): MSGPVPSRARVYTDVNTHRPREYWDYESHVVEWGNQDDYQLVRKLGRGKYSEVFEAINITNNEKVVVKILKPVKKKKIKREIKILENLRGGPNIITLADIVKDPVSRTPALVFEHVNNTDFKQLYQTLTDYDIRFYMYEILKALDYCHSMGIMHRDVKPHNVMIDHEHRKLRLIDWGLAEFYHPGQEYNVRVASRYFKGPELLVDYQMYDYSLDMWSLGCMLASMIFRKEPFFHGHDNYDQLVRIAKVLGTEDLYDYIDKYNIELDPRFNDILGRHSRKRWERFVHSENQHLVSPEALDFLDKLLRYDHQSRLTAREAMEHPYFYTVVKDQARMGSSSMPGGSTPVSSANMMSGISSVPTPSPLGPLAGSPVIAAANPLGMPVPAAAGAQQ
# Sequence of Casein kinase II (P19784 whole entry): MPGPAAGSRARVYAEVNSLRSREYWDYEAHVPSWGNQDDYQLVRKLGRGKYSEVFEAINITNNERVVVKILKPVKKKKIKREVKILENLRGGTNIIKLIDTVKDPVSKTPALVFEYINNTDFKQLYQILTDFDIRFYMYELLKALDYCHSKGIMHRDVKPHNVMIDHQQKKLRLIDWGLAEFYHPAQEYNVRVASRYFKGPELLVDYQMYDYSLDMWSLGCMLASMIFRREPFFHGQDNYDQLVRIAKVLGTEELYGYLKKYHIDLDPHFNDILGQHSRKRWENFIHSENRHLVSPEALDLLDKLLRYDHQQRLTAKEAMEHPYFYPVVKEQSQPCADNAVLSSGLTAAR
Activity [1],IC50 (Casein kinase II),SMILES
83%,> 30 µM,Cc1ccc(-c2oc3ccc(C)cc3c(=O)c2OCC(=O)O)cc1
,0.45 µM,Cc1cc(C)c2oc(-c3ccc(O)c(O)c3)cc(=O)c2c1
,1.6 µM,Cc1cc(C)c2oc(-c3ccc(O)cc3)cc(=O)c2c1
79%,> 30 µM,COc1ccc(-c2cc(=O)c3c(CN4CCOCC4)c(O)ccc3o2)cc1
,0.03 µM,COc1cc(-c2cc(=O)c3c(C)cc(C)cc3o2)ccc1O
,0.3 µM,COc1cc(-c2cc(=O)c3ccc(C)c(C)c3o2)ccc1O
,3 µM,COc1cc(-c2cc(=O)c3cc(C)c(C)cc3o2)ccc1O
97%,> 30 µM,O=C(COc1c(-c2ccccc2Cl)oc2ccccc2c1=O)N1CCOCC1
81%,> 30 µM,COc1ccc(-c2cc(=O)c3cc(C)ccc3o2)cc1OC
97%,> 30 µM,Cc1ccc(-c2oc3ccccc3c(=O)c2OCC(=O)N2CCOCC2)cc1
74%,> 30 µM,COc1cc(-c2cc(=O)c3c(CN4CCCCC4)c(O)ccc3o2)cc(OC)c1OC
,0.012 µM,Cc1cc(C)c2oc(-c3ccc(O)c([N+](=O)[O-])c3)cc(=O)c2c1
89%,> 30 µM,COc1ccc(-c2cc(=O)c3cc(OC(C)=O)ccc3o2)cc1
,0.2 µM,COc1ccc2oc(-c3ccc(O)c(OC)c3)cc(=O)c2c1
45%,26 µM,COc1cc(-c2cc(=O)c3cc(O)ccc3o2)cc(OC)c1OC
35%,19 µM,Cc1ccc(-c2cc(=O)c3cc(O)ccc3o2)cc1
17%,12 µM,COc1ccc(-c2cc(=O)c3c4c(ccc3o2)OCN(Cc2ccco2)C4)cc1
,0.028 µM,COc1cc(-c2cc(=O)c3ccc4ccccc4c3o2)ccc1O
,0.078 µM,Cc1cc(C)c2oc(-c3cc(Cl)c(O)c(Cl)c3)cc(=O)c2c1
,0.18 µM,Cc1cc(C)c2oc(-c3cc(Br)c(O)c(Br)c3)cc(=O)c2c1
35%,21 µM,Cc1ccc(-c2cc(=O)c3cc(C)cc(C)c3o2)cc1
,2.2 µM,Cc1cc(C)c2oc(-c3cccc(O)c3)cc(=O)c2c1
77%,> 30 µM,CCN1CCN(Cc2c(O)ccc3oc(-c4cc(OC)c(OC)c(OC)c4)cc(=O)c23)CC1
50%,28 µM,Cc1ccc(-c2oc3c(C)cc(C)cc3c(=O)c2OCC(=O)O)cc1
,0.32 µM,COc1cc(-c2cc(=O)c3cc(C)ccc3o2)ccc1O
92%,> 30 µM,COc1cc(-c2cc(=O)c3cc(C)ccc3o2)cc(OC)c1OC

Activity [1],IC50 (Casein kinase II),SMILES
68%,> 30 µM,COc1ccc(-c2oc3ccccc3c(=O)c2OC(C)=O)cc1
80%,> 30 µM,Cc1ccc2oc(-c3ccccc3)c(O)c(=O)c2c1
,0.15 µM,COc1cc(-c2cc(=O)c3cc(NC(C)=O)ccc3o2)ccc1O
29%,19 µM,O=c1cc(-c2cccc(Br)c2)oc2ccc(O)cc12
18%,15 µM,COc1ccc(-c2cc(=O)c3c4c(ccc3o2)OCN(c2cccc(C(F)(F)F)c2)C4)cc1
,0.087 µM,COc1cc(-c2cc(=O)c3ccc4ccccc4c3o2)cc(Cl)c1O
49%,30 µM,COc1ccc(-c2cc(=O)c3cc(O)ccc3o2)cc1
50%,28 µM,COc1ccc(-c2oc3ccc(C)cc3c(=O)c2O)cc1
77%,> 30 µM,O=c1cc(-c2ccc(F)cc2)oc2ccccc12
65%,> 30 µM,COc1cc(-c2oc3ccc(C)cc3c(=O)c2O)cc(OC)c1OC
77%,> 30 µM,COc1ccc(-c2oc3ccc(C)cc3c(=O)c2OCC(=O)O)cc1
,0.24 µM,COc1cc(-c2cc(=O)c3cc(Cl)ccc3o2)ccc1O
57%,> 30 µM,CCOc1ccc(-c2oc3ccc(C)cc3c(=O)c2O)cc1
,0.066 µM,COc1cc(-c2cc(=O)c3cc(C)cc(C)c3o2)cc([N+](=O)[O-])c1O
21%,7.5 µM,CCOc1cc(-c2cc(=O)c3ccccc3o2)ccc1O
,0.12 µM,CCc1ccc2oc(-c3ccc(O)c(OC)c3)cc(=O)c2c1
64%,> 30 µM,COc1ccc(-c2oc3ccc(C)cc3c(=O)c2O)cc1OC
,8 µM,Cc1ccc2oc(-c3ccc(O)cc3)cc(=O)c2c1
5%,0.8 µM,COc1cc(-c2cc(=O)c3ccccc3o2)ccc1O
73%,> 30 µM,COc1ccc(-c2cc(=O)c3c(CN(C)Cc4ccccc4)c(O)ccc3o2)cc1
,0.02 µM,COc1cc(-c2cc(=O)c3cc(Cl)cc(Cl)c3o2)cc(Cl)c1O
65%,> 30 µM,Cc1ccc2oc(-c3ccc(Br)cc3)c(O)c(=O)c2c1
95%,> 30 µM,Cc1ccc2oc(-c3ccccc3)c(OCC(=O)N3CCOCC3)c(=O)c2c1
86%,> 30 µM,COc1ccc(-c2oc3ccccc3c(=O)c2O)cc1
37%,21 µM,COc1ccc(-c2oc3cc(C)cc(C)c3c(=O)c2OC(=O)C2COc3ccccc3O2)cc1 (stereo not given)
66%,> 30 µM,"COc1ccc(-c2oc3ccccc3c(=O)c2O)cc1OC [3-HYDROXY-3',4'-DIMETHOXYFLAVONE]"

Activity [1],IC50 (Casein kinase II),SMILES
66%,> 30 µM,COc1ccc(-c2oc3ccccc3c(=O)c2OC)cc1OC
47%,25 µM,COc1cccc(-c2oc3ccc(C)cc3c(=O)c2O)c1
,0.79 µM,COc1cc(-c2cc(=O)c3cc(Cl)c(C)cc3o2)ccc1O
39%,26 µM,Cc1ccc2oc(-c3ccc(C(C)C)cc3)c(O)c(=O)c2c1
,0.65 µM,COc1cc(-c2cc(=O)c3cc(C)cc(C)c3o2)cc(Br)c1O
,> 30 µM,COc1cccc(-c2cc(=O)c3cc(C)cc(C)c3o2)c1O
,> 30 µM,COc1ccc(-c2cc(=O)c3cc(C)cc(C)c3o2)cc1O
,0.09 µM,COc1cc(-c2cc(=O)c3cc(C)cc(C)c3o2)cc(Cl)c1O
60%,> 30 µM,Cc1ccc2oc(-c3ccc(F)cc3)c(O)c(=O)c2c1
58%,> 30 µM,Cc1cc(C)c2c(=O)cc(-c3ccc(N(C)C)cc3)oc2c1
,0.175 µM,COc1ccc2c(=O)cc(-c3ccc(O)c(OC)c3)oc2c1
68%,> 30 µM,COc1ccc(-c2cc(=O)c3c(CN4CCC(C)CC4)c(O)ccc3o2)cc1
56%,> 30 µM,Cc1ccc(-c2oc3ccc(C)cc3c(=O)c2O)cc1
45%,28 µM,Cc1ccc2oc(-c3cc(Br)ccc3O)c(O)c(=O)c2c1
73%,> 30 µM,CN(C)c1ccc(-c2oc3ccccc3c(=O)c2O)cc1
46%,28 µM,COc1ccc(-c2oc3c(C)cc(C)cc3c(=O)c2OS(C)(=O)=O)cc1
18%,8 µM,CCOc1cc(-c2cc(=O)c3cc(C)ccc3o2)ccc1O
,0.05 µM,Cc1cc(C)c2oc(-c3ccc(O)c(Br)c3)cc(=O)c2c1
87%,> 30 µM,COc1ccc(-c2cc(=O)c3cc(C)cc(C)c3o2)cc1OC
73%,> 30 µM,COc1cc(-c2cc(=O)c3c(CN(C)Cc4ccccc4)c(O)ccc3o2)cc(OC)c1OC
73%,> 30 µM,COc1ccc(-c2cc(=O)c3cc(C)ccc3o2)cc1
,0.12 µM,COc1cc(-c2cc(=O)c3cc(Br)ccc3o2)ccc1O
,0.09 µM,COc1cc(-c2cc(=O)c3ccc(C)cc3o2)ccc1O
,2 µM,COc1cc(-c2cc(=O)c3c(C)c(Cl)c(C)cc3o2)ccc1O

SMILES,Activity [1],IC50 (Casein kinase II)
Cc1ccc2oc(-c3ccc(Cl)cc3)c(O)c(=O)c2c1,38%,23 µM
